Assay results from patent publication US4423218A, “Antibiotic neplanocin A” (Toyo Jozo Kabushiki Kaisha, priority 1978, dated 1983).

Key:
Solubility = assay type: physicochemical
[1] = Repeated intraperitoneal administration for 14 days, mortality; assay type: in vivo; settings: intraperitoneally for 14 days, 5 mg/kg/day
Nature (basicity) = assay type: physicochemical
[2] = system: Helminthosporium oryzae M 0306; assay: Growth inhibitory activity on plant pathogenic fungi (agar plate); assay type: cell-based; settings: Bipolaris oryzae, M0306; 100 γ/ml solution, agar plate of Helminthosporium oryzae M 0306; read-out: inhibitory zone diameter
Text: (1) Growth inhibitory activity on plant pathogenic fungi: […]

in vivo = settings: mouse, ip, mice

## Nc1ncnc2c1ncn2C1C=C(CO)C(O)C1O (single isomer, unassigned) [neplanocin A]
Solubility; acetic acid
  Solubility: Soluble
Solubility; aqueous acetone
  Solubility: Soluble
Solubility; benzene
  Solubility: Insoluble
Solubility; chloroform
  Solubility: Insoluble
Solubility; dimethylformamide
  Solubility: Soluble
Solubility; dimethylsulfoxide
  Solubility: Soluble
Solubility; ethyl acetate
  Solubility: Insoluble
Solubility; hexane
  Solubility: Insoluble
Solubility; water
  Solubility: Soluble
[1]
  mortalities: No mortalities were observed
Nature (basicity)
  Nature: weakly basic
[2]
  zone of inhibition at 100 µg/mL: 18.9 mm
In vivo
  LD50: 13.7 mg/kg
